Assay results from ChEMBL document CHEMBL4715689, “Novel PTP1B inhibitors identified by DNA display of fragment pairs” (Bioorg Med Chem Lett, 2016).
Active and inactive are the calls of the source. The calls are words filed in the database; no cut-off is given here.

Tests used:
[1] = target: T1, Tyrosine-protein phosphatase non-receptor type 2 (Homo sapiens, UniProt P17706); assay: Inhibition of recombinant human TCPTP (1 to 317 residues) expressed in Escherichia coli using DifMup as substrate preincubated for 30 mins followed by substrate addition and measured immediately
T1 sequence (P17706 whole entry): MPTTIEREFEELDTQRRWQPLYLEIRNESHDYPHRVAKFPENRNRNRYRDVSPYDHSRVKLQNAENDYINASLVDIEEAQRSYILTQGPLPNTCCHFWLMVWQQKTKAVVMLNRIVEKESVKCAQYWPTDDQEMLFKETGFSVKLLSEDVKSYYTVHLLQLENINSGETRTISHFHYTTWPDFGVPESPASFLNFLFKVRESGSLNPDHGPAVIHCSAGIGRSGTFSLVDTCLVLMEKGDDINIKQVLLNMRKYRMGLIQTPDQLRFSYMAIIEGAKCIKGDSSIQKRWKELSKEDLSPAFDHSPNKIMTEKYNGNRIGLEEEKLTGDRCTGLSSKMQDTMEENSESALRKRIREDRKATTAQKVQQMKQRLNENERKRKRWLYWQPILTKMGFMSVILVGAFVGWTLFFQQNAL

[2] = target: T2, Tyrosine-protein phosphatase non-receptor type 1 (Homo sapiens, UniProt P18031)
T2 sequence (P18031 whole entry): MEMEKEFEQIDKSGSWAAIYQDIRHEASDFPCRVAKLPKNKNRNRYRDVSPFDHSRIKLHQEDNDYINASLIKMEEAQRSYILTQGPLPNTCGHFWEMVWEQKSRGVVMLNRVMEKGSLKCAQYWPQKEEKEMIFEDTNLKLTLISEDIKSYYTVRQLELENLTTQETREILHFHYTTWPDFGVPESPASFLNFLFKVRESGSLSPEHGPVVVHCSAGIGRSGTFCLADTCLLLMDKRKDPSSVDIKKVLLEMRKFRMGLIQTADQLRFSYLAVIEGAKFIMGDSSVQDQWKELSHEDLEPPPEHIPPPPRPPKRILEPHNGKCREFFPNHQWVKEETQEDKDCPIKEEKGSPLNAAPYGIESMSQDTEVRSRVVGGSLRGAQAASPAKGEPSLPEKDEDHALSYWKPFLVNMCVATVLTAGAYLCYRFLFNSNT
Description: Inhibition of N-terminal GST-tagged recombinant human PTP1B (1 to 321 residues) expressed in Escherichia coli using DifMup as substrate preincubated for 30 mins followed by substrate addition and measured immediately

[3] = target: T2, Tyrosine-protein phosphatase non-receptor type 1; remark: listed apart in the source
Description: Binding affinity to N-terminal GST-tagged recombinant human PTP1B (1 to 321 residues) expressed in Escherichia coli assessed as dissociation constant and measured for 120 sec by biolayer interferometry

BT-474 = assay: Growth inhibition of human BT474 cells assessed as reduction in cell viability after 48 hrs by MTT assay; format: functional

SMILES	Ki [1] [nM]	Ki [2] [nM]	Kd [3] [nM]	GI50 (BT-474) [nM]	Activity (BT-474)
CCC(C)C(NC1=NS(=O)(=O)c2ccccc21)C(=O)NC[C@@H](NC(=O)CC1(NC(=O)[C@H](CC(C)(C)C)n2cc(CC3CCCCC3)nn2)CCCCC1)C(N)=O (some centres undefined)	> 100000	1700	290	900	–
CC(C)C(NC1=NS(=O)(=O)c2ccccc21)C(=O)NCC(NC(=O)c1n[nH]c2ccc([N+](=O)[O-])cc12)C(N)=O (centres undefined)	> 20000	–	–	–	inactive
CCCCC(NC1=NS(=O)(=O)c2ccccc21)C(=O)NC[C@@H](NC(=O)C1CCCC(NC(=O)[C@H](CC(C)(C)C)n2cc(CC3CCCCC3)nn2)C1)C(N)=O (some centres undefined)	12200	3100	90	–	–
CCCCC(NC1=NS(=O)(=O)c2ccccc21)C(=O)NCC(NC(=O)COCCOCCNC(=O)C(C1CC1)n1cc(-c2cccc(OC)c2)nn1)C(=O)NC(CCCCNC(=O)CCCC[C@@H]1SCC2NC(=O)NC21)C(N)=O (some centres undefined)	7010	2900	220	–	–
CCCCC(NC1=NS(=O)(=O)c2ccccc21)C(=O)NC[C@@H](NC(=O)C1CCCC(NC(=O)[C@H](CC(C)(C)C)n2cc(CC3CCCCC3)nn2)C1)C(=O)NC(CCCCNC(=O)CCCC[C@@H]1SCC2NC(=O)NC21)C(N)=O (some centres undefined)	12200	3100	90	–	–
CCC(C)C(NC1=NS(=O)(=O)c2ccccc21)C(=O)NC[C@@H](NC(=O)CC1(NC(=O)[C@H](CC(C)(C)C)n2cc(CC3CCCCC3)nn2)CCCCC1)C(=O)NC(CCCCNC(=O)CCCC[C@@H]1SCC2NC(=O)NC21)C(N)=O (some centres undefined)	> 100000	1700	290	900	–
NC(=O)C(CCCCNC(=O)CCCC[C@@H]1SCC2NC(=O)NC21)NC(=O)C(CNC(=O)CCCCCNC1=NS(=O)(=O)c2ccccc21)NC(=O)Cc1ccc(CNC(=O)[C@H](C2CC2)n2cc(CC3CCCCC3)nn2)cc1 (some centres undefined)	3010	6800	110	–	–
CCCCC(NC1=NS(=O)(=O)c2ccccc21)C(=O)NCC(NC(=O)c1ccccc1NC(=O)c1n[nH]c2ccc([N+](=O)[O-])cc12)C(=O)NC(CCCCNC(=O)CCCC[C@@H]1SCC2NC(=O)NC21)C(N)=O (some centres undefined)	> 100000	1200	270	–	inactive
CC(C)C(NC1=NS(=O)(=O)c2ccccc21)C(=O)NC[C@@H](NC(=O)CC1(NC(=O)[C@H](CC(C)(C)C)n2cc(CC3CCCCC3)nn2)CCCCC1)C(=O)NC(CCCCNC(=O)CCCC[C@@H]1SCC2NC(=O)NC21)C(N)=O (some centres undefined)	6200	3500	100	–	–
NC(=O)C(CNC(=O)CCCCCNC1=NS(=O)(=O)c2ccccc21)NC(=O)Cc1ccc(CNC(=O)[C@H](C2CC2)n2cc(CC3CCCCC3)nn2)cc1 (some centres undefined)	3010	6800	110	–	–
CC(C)C(NC1=NS(=O)(=O)c2ccccc21)C(=O)NC[C@@H](NC(=O)CC1(NC(=O)[C@H](CC(C)(C)C)n2cc(CC3CCCCC3)nn2)CCCCC1)C(N)=O (some centres undefined)	6200	3500	100	–	–
CC(C)C(NC1=NS(=O)(=O)c2ccccc21)C(=O)NCC(NC(=O)c1n[nH]c2ccc([N+](=O)[O-])cc12)C(=O)NC(CCCCNC(=O)CCCC[C@@H]1SCC2NC(=O)NC21)C(N)=O (some centres undefined)	> 20000	250	50	–	inactive
CCCCC(NC1=NS(=O)(=O)c2ccccc21)C(=O)NCC(NC(=O)CC1(NC(=O)C(C2CC2)n2cc(CC3CCCCC3)nn2)CCCCC1)C(N)=O (centres undefined)	2700	16800	120	–	–
CCC(C)C(NC1=NS(=O)(=O)c2ccccc21)C(=O)NC[C@@H](NC(=O)C1CCCC(NC(=O)C(C2CC2)n2cc(CC3CCCCC3)nn2)C1)C(=O)NC(CCCCNC(=O)CCCC[C@@H]1SCC2NC(=O)NC21)C(N)=O (some centres undefined)	800	3400	240	–	–
CCC(C)C(NC1=NS(=O)(=O)c2ccccc21)C(=O)NC[C@@H](NC(=O)C1CCCC(NC(=O)C(C2CC2)n2cc(CC3CCCCC3)nn2)C1)C(N)=O (some centres undefined)	800	3400	240	–	–
CCCCC(NC1=NS(=O)(=O)c2ccccc21)C(=O)NCC(NC(=O)CC1(NC(=O)C(C2CC2)n2cc(CC3CCCCC3)nn2)CCCCC1)C(=O)NC(CCCCNC(=O)CCCC[C@@H]1SCC2NC(=O)NC21)C(N)=O (some centres undefined)	2700	16800	120	–	–
CCCCC(NC1=NS(=O)(=O)c2ccccc21)C(=O)NCC(NC(=O)COCCOCCNC(=O)C(C1CC1)n1cc(-c2cccc(OC)c2)nn1)C(N)=O (centres undefined)	7010	2900	220	–	–
CCCCC(NC1=NS(=O)(=O)c2ccccc21)C(=O)NC[C@@H](NC(=O)C1(NC(=O)[C@H](CC(C)(C)C)n2cc(CC3CCCCC3)nn2)CC1)C(N)=O (some centres undefined)	7600	2200	210	–	–
CCCCC(NC1=NS(=O)(=O)c2ccccc21)C(=O)NC[C@@H](NC(=O)C1(NC(=O)[C@H](CC(C)(C)C)n2cc(CC3CCCCC3)nn2)CC1)C(=O)NC(CCCCNC(=O)CCCC[C@@H]1SCC2NC(=O)NC21)C(N)=O (some centres undefined)	7600	2200	210	–	–
CCCCC(NC1=NS(=O)(=O)c2ccccc21)C(=O)NCC(NC(=O)c1ccccc1NC(=O)c1n[nH]c2ccc([N+](=O)[O-])cc12)C(N)=O (centres undefined)	> 100000	1200	270	–	inactive
